# Source: patent publication US12570666B2, “Furoindazole derivatives” (Bayer Aktiengesellschaft, priority 2019, dated 2026)
# Target: T1, human GPR84 receptor (Homo sapiens, UniProt Q9NQS5)
# T1 construct: frozen aliquots prepared by acCELLerate; host or cells: CHO-K1
# Assay: cAMP HTRF assay for identification of cellular GPR84 antagonists
# Format: cell-based
# Conditions: CHO-K1 cells stably expressing human GPR84; Forskolin + agonist 6-OAU (EC80); average or median values
# How it was run: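 Forskolin-stimulated CHO-K1 cells stably expressing human GPR84, agonist-suppressed cAMP measured by HTRF (665/620 ratio) after lysis. Compounds at 11 concentrations, 20 μM to 0.07 nM, duplicate; normalized to DMSO and no-agonist controls; IC50 by 4-parameter fit.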
# T1 sequence (Q9NQS5 whole entry): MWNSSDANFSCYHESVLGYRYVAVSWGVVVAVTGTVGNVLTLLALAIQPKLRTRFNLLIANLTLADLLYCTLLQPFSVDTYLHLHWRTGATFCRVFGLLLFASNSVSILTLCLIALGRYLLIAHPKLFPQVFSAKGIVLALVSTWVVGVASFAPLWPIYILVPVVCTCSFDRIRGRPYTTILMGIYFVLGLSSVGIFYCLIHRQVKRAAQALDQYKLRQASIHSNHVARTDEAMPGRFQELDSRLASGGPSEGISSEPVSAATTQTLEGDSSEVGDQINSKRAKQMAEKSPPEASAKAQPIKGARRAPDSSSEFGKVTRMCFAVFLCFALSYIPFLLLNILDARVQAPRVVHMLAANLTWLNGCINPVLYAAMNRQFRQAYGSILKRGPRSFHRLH
row,IC50,Structure (SMILES)
1,4 nM,"C[C@@H]1Cc2oc(C(=O)NC[C@@H]3CCCO3)c(C(F)(F)F)c2-c2nn(CC3CCN(C(=O)C4CC4)CC3)cc21 (single isomer, unassigned) [Example 290, (4R or 4S)-2-{[1-(cyclopropanecarbonyl)piperidin-4-yl]methyl}-4-methyl-N-{[(2S)-oxolan-2-yl]methyl}-8-(trifluoromethyl)-4,5-dihydro-2H-furo[2,3-g]indazole-7-carboxamide]"
2,5 nM,"C[C@@H]1Cc2oc(C(=O)NC[C@@H]3COCCO3)c(C(F)(F)F)c2-c2nn(CC3CCN(C(=O)C4CC4)CC3)cc21 (single isomer, unassigned) [Example 291, (4R or 4S)-2-{[1-(cyclopropanecarbonyl)piperidin-4-yl]methyl}-N-{[(2R)-1,4-dioxan-2-yl]methyl}-4-methyl-8-(trifluoromethyl)-4,5-dihydro-2H-furo[2,3-g]indazole-7-carboxamide]"
3,6 nM,"CC(=O)N1CCC(Cn2cc3c(n2)-c2c(oc(C(=O)NC[C@@H]4CCCO4)c2C(F)(F)F)C[C@H]3C)CC1 (single isomer, unassigned) [Example 292, (4R or 4S)-2-[(1-acetylpiperidin-4-yl)methyl]-4-methyl-N-{[(2S)-oxolan-2-yl]methyl}-8-(trifluoromethyl)-4,5-dihydro-2H-furo[2,3-g]indazole-7-carboxamide]"
4,7 nM,"C[C@@H]1Cc2oc(C(=O)NC[C@@H]3CCCO3)c(C(F)(F)F)c2-c2nn(CC3CCN(C(=O)C4(O)CC4)CC3)cc21 (single isomer, unassigned) [Example 293, (4R or 4S)-2-{[1-(1-hydroxycyclopropane-1-carbonyl)piperidin-4-yl]methyl}-4-methyl-N-{[(2S)-oxolan-2-yl]methyl}-8-(trifluoromethyl)-4,5-dihydro-2H-furo[2,3-g]indazole-7-carboxamide]"
5,13 nM,"CCC(=O)C(=O)N1CCC(Cn2cc3c(n2)-c2c(oc(C(=O)NC[C@@H]4CCCO4)c2C(F)(F)F)C[C@H]3C)CC1 (single isomer, unassigned) [Example 297, (4R or 4S)-4-methyl-2-{[1-(2-oxobutanoyl)piperidin-4-yl]methyl}-N-{[(2S)-oxolan-2-yl]methyl}-8-(trifluoromethyl)-4,5-dihydro-2H-furo[2,3-g]indazole-7-carboxamide]"
6,9 nM,"C[C@@H]1Cc2oc(C(=O)NC[C@@H]3CCCO3)c(C(F)(F)F)c2-c2nn(CC3CCN(C(=O)C4(C)CC4)CC3)cc21 (single isomer, unassigned) [Example 298, (4R or 4S)-4-methyl-2-{[1-(1-methylcyclopropane-1-carbonyl)piperidin-4-yl]methyl}-N-{[(2S)-oxolan-2-yl]methyl}-8-(trifluoromethyl)-4,5-dihydro-2H-furo[2,3-g]indazole-7-carboxamide]"

# Further lines, the molecule ahead of its results:
row,Structure (SMILES),IC50
1,"C[C@@H]1Cc2oc(C(=O)NCc3cocn3)c(C(F)(F)F)c2-c2nn(C[C@H]3COCCO3)cc21 (single isomer, unassigned) [Example 261, (4R or 4S)-2-{[(2S)-1,4-dioxan-2-yl]methyl}-4-methyl-N-[(1,3-oxazol-4-yl)methyl]-8-(trifluoromethyl)-4,5-dihydro-2H-furo[2,3-g]indazole-7-carboxamide]",63 nM
2,"C[C@@H]1Cc2oc(C(=O)NCc3cnc(C(F)(F)F)nc3)c(C(F)(F)F)c2-c2nn(C[C@H]3COCCO3)cc21 (single isomer, unassigned) [Example 262, (4R or 4S)-2-{[(2S)-1,4-dioxan-2-yl]methyl}-4-methyl-8-(trifluoromethyl)-N-{[2-(trifluoromethyl)pyrimidin-5-yl]methyl}-4,5-dihydro-2H-furo[2,3-g]indazole-7-carboxamide]",195 nM
3,"C[C@@H]1Cc2oc(C(=O)NC[C@@H]3COCCO3)c(C(F)(F)F)c2-c2nn(CC3CCOCC3)cc21 (single isomer, unassigned) [Example 263, (4R or 4S)-N-{[(2R)-1,4-dioxan-2-yl]methyl}-4-methyl-2-[(oxan-4-yl)methyl]-8-(trifluoromethyl)-4,5-dihydro-2H-furo[2,3-g]indazole-7-carboxamide]",13 nM
4,"Cc1c(C(=O)NC[C@@H]2COCCO2)oc2c1-c1nn(C[C@H]3COCCO3)cc1[C@H](C(F)(F)F)C2 (single isomer, unassigned) [Example 265-1, (4R or 4S)-N-{[(2R)-1,4-dioxan-2-yl]methyl}-2-{[(2S)-1,4-dioxan-2-yl]methyl}-8-methyl-4-(trifluoromethyl)-4,5-dihydro-2H-furo[2,3-g]indazole-7-carboxamide]",185 nM
5,"Cc1c(C(=O)NC[C@@H]2COCCO2)oc2c1-c1nn(C[C@H]3COCCO3)cc1[C@H](C(F)(F)F)C2 (single isomer, unassigned) [Example 265-2, (4R or 4S)-N-{(2R)-1 ,4-dioxan-2-yl]methyl}-2-{[(2S)-1,4-dioxan-2-yl]methyl}-8-methyl-4-(trifluoromethyl)-4,5-dihydro-2H-furo[2,3-g]indazole-7-carboxamide]",1210 nM
6,"CC(=O)N1CCC(Cn2cc3c(n2)-c2c(oc(C(=O)NC[C@@H]4COCCO4)c2C(F)(F)F)C[C@H]3C)CC1 (single isomer, unassigned) [Example 294, (4R or 4S)-2-[(1-acetylpiperidin-4-yl)methyl]-N-{[(2R)-1,4-dioxan-2-yl]methyl}-4-methyl-8-(trifluoromethyl)-4,5-dihydro-2H-furo[2,3-g]indazole-7-carboxamide]",8 nM
7,"C[C@@H]1Cc2oc(C(=O)NC[C@@H]3COCCO3)c(C(F)(F)F)c2-c2nn(CC3CCN(C(=O)C4(O)CC4)CC3)cc21 (single isomer, unassigned) [Example 295, (4R or 4S)-N-{[(2R)-1,4-dioxan-2-yl]methyl}-2-{[1-(1-hydroxycyclopropane-1-carbonyl)piperidin-4-yl]methyl}-4-methyl-8-(trifluoromethyl)-4,5-dihydro-2H-furo[2,3-g]indazole-7-carboxamide]",8 nM
8,"CCC(=O)C(=O)N1CCC(Cn2cc3c(n2)-c2c(oc(C(=O)NC[C@@H]4COCCO4)c2C(F)(F)F)C[C@H]3C)CC1 (single isomer, unassigned) [Example 296, (4R or 4S)-N-{[(2R)-1,4-dioxan-2-yl]methyl}-4-methyl-2-{[1-(2-oxobutanoyl)piperidin-4-yl]methyl}-8-(trifluoromethyl)-4,5-dihydro-2H-furo[2,3-g]indazole-7-carboxamide]",9 nM
9,"C[C@@H]1Cc2oc(C(=O)NC[C@@H]3COCCO3)c(C(F)(F)F)c2-c2nn(CC3CCN(C(=O)C4(C)CC4)CC3)cc21 (single isomer, unassigned) [Example 299, (4R or 4S)-N-{[(2R)-1,4-dioxan-2-yl]methyl}-4-methyl-2-{[1-(1-methylcyclopropane-1-carbonyl)piperidin-4-yl]methyl}-8-(trifluoromethyl)-4,5-dihydro-2H-furo[2,3-g]indazole-7-carboxamide]",24 nM
10,"Cc1ncc(CNC(=O)c2oc3c(c2C(F)(F)F)-c2nn(C[C@H]4COCCO4)cc2[C@H](C)C3)cn1 (single isomer, unassigned) [Example 302, (4R or 4S)-2-{[(2S)-1,4-dioxan-2-yl]methyl}-4-methyl-N-[(2-methylpyrimidin-5-yl)methyl]-8-(trifluoromethyl)-4,5-dihydro-2H-furo[2,3-g]indazole-7-carboxamide]",1510 nM
